Results: patent publication US20220056018A1, “SREBP INHIBITORS COMPRISING A THIOPHENE CENTRAL RING” (Capulus Therapeutics, LLC, priority 2019, published 2022)

Legend:
[1] = Stability in mouse liver microsomes; assay type: in vitro ADME
Experimental: (§1) Compounds were evaluated for stability in human liver microsomes. A 10 mM stock solution of the compound being evaluated was prepared in DMSO and diluted with water:acetonitrile (1:1) to a concentration of 1 mM. A working concentration of 100 μM was prepared by further dilution with water:acetonitrile (1:1). To make the preincubation mixture, 2.5 μL of the diluted compound was combined with 75 μL of human liver microsomes at 3.33 mg/mL, and 85 μL of 100 mM potassium phosphate buffer, and this mixture was pre-incubated for 10 min at 37° C. To make the 60 minute mixture without cofactor, 32.5 μL of the preincubation mixture was combined with 17.5 μL of 100 mM potassium phosphate buffer and incubated for 60 min at 37° C. To make the 0 min sample with cofactor (NADPH), 16.25 μL of the preincubation mixture was combined with 200 μL of acetonitrile containing internal standard and 8.75 μL of cofactor (NADPH). To make the incubation mixture, 62 μL of cofactor (2.85 mM) was combined with the remaining incubation mixture, and incubated for 60 min at 37° C. To prepare the sample mixture to be evaluated, 25 μL incubation mixture was combined with 200 μL of acetonitrile containing internal standard and vortexed for 5 min at 1200 rpm, then centrifuged for 10 min at 4000 rpm. The supernatant was diluted 2 fold with water and injected on LC-MS/MS. The sample mixture was evaluated by LC-MS/MS using 10 mM ammonium acetate with 0.100 FA as the aqueous mobile phase, and methanol as the organic mobile phase.
Half-Life Mouse Microsomes:
Compounds were evaluated in mouse liver microsomes following a similar procedure as described above for human liver microsomes. A similar procedure could be used to evaluate compounds in rat liver microsomes.

[2] = Stability in human liver microsomes; assay type: in vitro ADME; details: 37° C., NADPH
Experimental: Half-Life Human Microsomes:
as §1

SREBP = assay: Reporter Screening Assay (SRE-luciferase reporter, HepG2); assay type: cell-based; details: Homo sapiens; SRE-luciferase reporter HepG2 cells, 24 hours, 0.01 uM to 10 uM; read-out: I: Reporter Screening Assay (Ave EC50 (nM))
Experimental: Reporter Screening Assay: This assay was used to evaluate the effect on transcriptional activity SREBP of selected compounds using an SRE-luciferase reporter construct. On day 1, 10,000 cells were seeded in a 96 well (white) plate as per the plate map in Growth media without antibiotics. Cells were incubated at 37° C. for 8 hours. After 8 hours, cells were washed with DPBS for complete removal of FBS. DPBS was completely removed and Growth media was replaced with phenol free treatment medium (90 μl) with different FBS concentrations. The cells were then incubated at 37° C. for 24 hours with varying doses (0.01 uM to 10 uM) of compounds. Then a Luciferase assay was performed.
Reagents for performing Luciferase assay were stored at −20° C. To a tube of lyophilized assay substrate was added 1 mL Substrate Solvent and mixed well. The Substrate tube after reconstitution was covered with aluminum foil so as to keep it protected from light. The assay buffer was thawed to room temperature. To 20 mL Assay Buffer was added 200 μL of reconstituted 100× Substrate and mixed well. The reconstituted substrate as well as the assay solution (buffer+substrate) was protected from light throughout the procedure by keeping it covered with aluminum foil. Using a multi-channel pipette, 100 μL Assay Solution (buffer+substrate) was added directly to each sample well in Plate 1, which was incubated for 30 min (plate was covered with aluminum foil). After 30 min incubation, the plate was read for total luminescence. Each well was read for 2 seconds in a plate luminometer. (Microplate reader Envision Microplate reader from Perkin Elmer). Precaution was taken to incubate plate exactly for 30 min prior to reading on the plate reader.
SREBPv1 Reporter cell line: HepG2—#32251. Growth Medium: MEM (Corning 10-010), 10% FBS, 1% GlutaMax (Invitrogen Catalog #35050061), […] (Invitrogen Catalog # A1113803) and 1% Penicillin-Streptomycin (Pen-Strep). Treatment Media: Phenol-free MEM (Invitrogen Catalog #51200-038) and 1% GlutaMax (Invitrogen Catalog #35050061). Luciferase Assay: LightSwitch Luciferase Assay Kit (Catalog #32032). LDH assay: Pierce LDH Cytotoxicity Assay Kit (Catalog # SD249616).

Row | Structure (SMILES) | percent parent remaining after 60 min in liver microsomes [1] | percent of compound remaining after 60 min in human liver microsomes [2] | EC50 (SREBP)
1 | CC(C)(O)C(O)c1cc(-c2csc(-c3ccc(NS(C)(=O)=O)cc3Cl)c2)ccn1 (stereo not drawn) [Compound I-9075, N-(3-chloro-4-(4-(2-(1,2-dihydroxy-2-methylpropyl)pyridin-4-yl)thiophen-2-yl)phenyl)methanesulfonamide] | +++ (>60.1 = +++) | +++ (>60.1 = +++) | > 500 nM
2 | O=C(Nc1ccc(-c2cc(-c3ccnc(C4(CO)CC4)c3)cs2)c(Cl)c1)OC1CC1 [Compound I-9082, cyclopropyl (3-chloro-4-(4-(2-(1-(hydroxymethyl)cyclopropyl)pyridin-4-yl)thiophen-2-yl)phenyl)carbamate] | ++ (30.1-60 = ++) | +++ (>60.1 = +++) | > 500 nM
3 | CC(C)(O)Cc1cc(-c2cc(-c3ccc(NS(C)(=O)=O)cc3Cl)sc2F)ccn1 [Compound I-9085, N-(3-chloro-4-(5-fluoro-4-(2-(2-hydroxy-2-methylpropyl)pyridin-4-yl)thiophen-2-yl)phenyl)methanesulfonamide] | +++ (>60.1 = +++) | +++ (>60.1 = +++) | > 500 nM
4 | CC(O)(CO)c1cc(-c2csc(-c3ccc(NS(C)(=O)=O)cc3Cl)c2)ccn1 (stereo not drawn) [Compound I-9088, N-(3-chloro-4-(4-(2-(1,2-dihydroxypropan-2-yl)pyridin-4-yl)thiophen-2-yl)phenyl)methanesulfonamide] | +++ (>60.1 = +++) | +++ (>60.1 = +++) | > 500 nM
5 | Cc1sc(-c2ccc(NS(C)(=O)=O)cc2Cl)cc1-c1ccnc(CC(C)(C)O)c1 [Compound I-9091, N-(3-chloro-4-(4-(2-(2-hydroxy-2-methylpropyl)pyridin-4-yl)-5-methylthiophen-2-yl)phenyl)methanesulfonamide] | +++ (>60.1 = +++) | +++ (>60.1 = +++) | > 500 nM
6 | CS(=O)(=O)Nc1ccc(-c2cc(-c3ccnc(O[C@@H]4COC[C@@H]4O)c3)cs2)c(Cl)c1 [Compound I-9108, N-(3-chloro-4-(4-(2-(((3R,4S)-4-hydroxytetrahydrofuran-3-yl)oxy)pyridin-4-yl)thiophen-2-yl)phenyl)methanesulfonamide] | +++ (>60.1 = +++) | +++ (>60.1 = +++) | > 500 nM
